Measurements: US20070208005A1, “TETRAHYDROBENZAZEPINES AS ANTAGONISTS AND/OR REVERSE AGONISTS OF THE HISTAMINE H3 RECEPTOR” (priority 2004, published 2007)

molecular target: T1, histamine H3 receptor (Homo sapiens, UniProt Q9Y5N1); assay: Histamine H3 functional antagonist assay ([35S]-GTPγS SPA on membranes of H3 cells); format: biochemical; settings: membrane prepared from cultured H3 cells (CHO K1, human H3); histamine at EC80; averages of a number of experiments; read-out: functional pKi (fpKi), H3 functional antagonist assay (converted)
T1 construct: expressed in transfected cells; host or cells: CHO K1 cells (pSwitch/pGene GeneSwitch system, mifepristone-induced), clone 3H3; membranes
T1 sequence (Q9Y5N1 whole entry): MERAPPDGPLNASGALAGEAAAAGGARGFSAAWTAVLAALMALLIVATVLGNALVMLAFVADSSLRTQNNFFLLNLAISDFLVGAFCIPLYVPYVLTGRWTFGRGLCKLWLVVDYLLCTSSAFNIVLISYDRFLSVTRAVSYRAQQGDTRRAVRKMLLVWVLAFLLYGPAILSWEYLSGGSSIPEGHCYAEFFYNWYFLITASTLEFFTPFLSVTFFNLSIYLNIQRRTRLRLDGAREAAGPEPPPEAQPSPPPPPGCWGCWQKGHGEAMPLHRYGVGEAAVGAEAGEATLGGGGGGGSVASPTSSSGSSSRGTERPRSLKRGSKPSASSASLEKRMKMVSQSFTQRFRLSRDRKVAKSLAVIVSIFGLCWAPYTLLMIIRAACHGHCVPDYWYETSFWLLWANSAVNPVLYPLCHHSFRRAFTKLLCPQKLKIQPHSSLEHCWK
Description: A membrane preparation containing histamine H3 receptors may be prepared in accordance with the following procedures:
(i) Generation of Histamine H3 Cell Line
DNA encoding the human histamine H3 gene (Huvar, A. et al. (1999) Mol. Pharmacol. 55(6), 1101-1107) was cloned into a holding vector, pcDNA3.1 TOPO (InVitrogen) and its cDNA was isolated from this vector by restriction digestion of plasmid DNA with the enzymes BamH1 and Not-1 and ligated into the inducible expression vector pGene (InVitrogen) digested with the same enzymes. The GeneSwitch™ system (a system where in transgene expression is switched off in the absence of an inducer and switched on in the presence of an inducer) was performed as described in U.S. Pat. Nos. 5,364,791; 5,874,534; and 5,935,934. Ligated DNA was transformed into competent DH5α E. coli host bacterial cells and plated onto Luria Broth (LB) agar containing Zeocin™ (an antibiotic which allows the selection of cells expressing the sh ble gene which is present on pGene and pSwitch) at 50 μg ml^−1. Colonies containing the re-ligated plasmid were identified by restriction analysis. DNA for transfection into mammalian cells was prepared from 250 ml cultures of the host bacterium containing the pGeneH3 plasmid and isolated using a DNA preparation kit (Qiagen Midi-Prep) as per manufacturers guidelines (Qiagen). CHO K1 cells previously transfected with the pSwitch regulatory plasmid (InVitrogen) were seeded at 2×10e6 cells per T75 flask in Complete Medium, containing Hams F12 (GIBCOBRL, Life Technologies) medium supplemented with 10% v/v dialysed foetal bovine serum, L-glutamine, and hygromycin (100 μg ml^−1), 24 hours prior to use. Plasmid DNA was transfected into the cells using Lipofectamine plus according to the manufacturers guidelines (InVitrogen). 48 hours post transfection cells were placed into complete medium supplemented with 500 μg ml^−1 Zeocin™.
10-14 days post selection 10 nM Mifepristone (InVitrogen), was added to the culture medium to induce the expression of the receptor. 18 hours post induction cells were detached from the flask using ethylenediamine tetra-acetic acid (EDTA; 1:5000; InVitrogen), following several washes with phosphate buffered saline pH 7.4 and resuspended in Sorting Medium containing Minimum Essential Medium (MEM), without phenol red, and supplemented with Earles salts and 3% Foetal Clone II (Hyclone). Approximately 1×10e7 cells were examined for receptor expression by staining with a rabbit polyclonal antibody, 4a, raised against the N-terminal domain of the histamine H3 receptor, incubated on ice for 60 minutes, followed by two washes in sorting medium. Receptor bound antibody was detected by incubation of the cells for 60 minutes on ice with a goat anti rabbit antibody, conjugated with Alexa 488 fluorescence marker (Molecular Probes). Following two further washes with Sorting Medium, cells were filtered through a 50 μm Filcon™ (BD Biosciences) and then analysed on a FACS Vantage SE Flow Cytometer fitted with an Automatic Cell Deposition Unit. Control cells were non-induced cells treated in a similar manner. Positively stained cells were sorted as single cells into 96-well plates, containing Complete Medium containing 500 μg ml^−1 Zeocin™ and allowed to expand before reanalysis for receptor expression via antibody and ligand binding studies. One clone, 3H3, was selected for membrane preparation.
(ii) Membrane Preparation from Cultured Cells
All steps of the protocol are carried out at 4° C. and with pre-cooled reagents. The cell pellet is resuspended in 10 volumes of homogenisation buffer (50 mM N-2-hydroxyethylpiperazine-N′-2-ethanesulfonic acid (HEPES), 1 mM ethylenediamine tetra-acetic acid (EDTA), pH 7.4 with KOH, supplemented with 10e-6M leupeptin (acetyl-leucyl-leucyl-arginal; Sigma L2884), 25 μg/ml bacitracin (Sigma B0125), 1 mM phenylmethylsulfonyl fluoride (PMSF) and 2×10e-6M pepstain A (Sigma)). […]

`c1cc(-c2csnn2)ccc1Cc1ccc2c(c1)CCN(C1CCC1)CC2` [Example E57, 3-cyclobutyl-7-{[4-(1,2,3-thiadiazol-4-yl)phenyl]methyl}-2,3,4,5-tetrahydro-1H-3-benzazepine] and `Cc1noc(-c2ccc(Cc3ccc4c(c3)CCN(C3CCC3)CC4)cc2)n1` [Example E13, 3-Cyclobutyl-7-{[4-(3-methyl-1,2,4-oxadiazol-5-yl)phenyl]methyl}-2,3,4,5-tetrahydro-1H-3-benzazepine] cannot be ordered by Ki: under 0.316 nM for the first, under 0.316 nM for the second.

`NC(=O)c1ccc(Cc2ccc3c(c2)CCN(C2CCC2)CC3)cc1` [Example E46, 4-[(3-cyclobutyl-2,3,4,5-tetrahydro-1H-3-benzazepin-7-yl)methyl]benzamide] and `CCNC(=O)c1ccc(Cc2ccc3c(c2)CCN(C2CCC2)CC3)cc1` [Example E48, 4-[(3-cyclobutyl-2,3,4,5-tetrahydro-1H-3-benzazepin-7-yl)methyl]-N-ethylbenzamide] cannot be ordered by Ki: under 0.316 nM for the first, under 3.16 nM for the second.

`CC(C)NC(=O)c1ccc(Cc2ccc3c(c2)CCN(C2CCC2)CC3)cc1` [Example E51, 4-[(3-cyclobutyl-2,3,4,5-tetrahydro-1H-3-benzazepin-7-yl)methyl]-N-(1-methylethyl)benzamide] and `CC(C)NC(=O)c1ccc(Cc2ccc3c(c2)CCN(C2CCC2)CC3)cn1` [Example E53, 5-[(3-cyclobutyl-2,3,4,5-tetrahydro-1H-3-benzazepin-7-yl)methyl]-N-(1-methylethyl)-2-pyridinecarboxamide] cannot be ordered by Ki: under 3.16 nM for the first, under 3.16 nM for the second.

`CN1CCN(c2ccc(Cc3ccc4c(c3)CCN(C3CCC3)CC4)cn2)C1=O` [Example E40, 1-{5-[(3-Cyclobutyl-2,3,4,5-tetrahydro-1H-3-benzazepin-7-yl)methyl]-2-pyridinyl}-3-methyl-2-imidazolidinone] and `O=C(c1ccc(Cc2ccc3c(c2)CCN(C2CCC2)CC3)cn1)N1CCCC1` [Example E54, 3-cyclobutyl-7-{[6-(1-pyrrolidinylcarbonyl)-3-pyridinyl]methyl}-2,3,4,5-tetrahydro-1H-3-benzazepine] cannot be ordered by Ki: under 3.16 nM for the first, under 3.16 nM for the second.

`CCNC(=O)c1cnc(Cc2ccc3c(c2)CCN(C2CCC2)CC3)cn1` [Example E34, 5-[(3-Cyclobutyl-2,3,4,5-tetrahydro-1H-3-benzazepin-7-yl)methyl]-N-ethyl-2-pyrazinecarboxamide] and `N#CCNC(=O)c1cnc(Cc2ccc3c(c2)CCN(C2CCC2)CC3)cn1` [Example E24, N-(Cyanomethyl)-5-[(3-cyclobutyl-2,3,4,5-tetrahydro-1H-3-benzazepin-7-yl)methyl]-2-pyrazinecarboxamide] cannot be ordered by Ki: under 3.16 nM for the first, under 3.16 nM for the second.

`N#Cc1ccc(Cc2ccc3c(c2)CCN(C2CCC2)CC3)cc1` [Example E1, 4-[(3-Cyclobutyl-2,3,4,5-tetrahydro-1H-3-benzazepin-7-yl)methyl]benzonitrile] and `N#Cc1ccc(Cc2ccc3c(c2)CCN(C2CCC2)CC3)nc1` [Example E41, 6-[(3-cyclobutyl-2,3,4,5-tetrahydro-1H-3-benzazepin-7-yl)methyl]-3-pyridinecarbonitrile] cannot be ordered by Ki: under 0.316 nM for the first, under 3.16 nM for the second.

`O=C(c1ccc(Cc2ccc3c(c2)CCN(C2CCC2)CC3)nc1)N1CCCC1` [Example E43, 3-cyclobutyl-7-{[5-(1-pyrrolidinylcarbonyl)-2-pyridinyl]methyl}-2,3,4,5-tetrahydro-1H-3-benzazepine] and `O=C(c1ccc(Cc2ccc3c(c2)CCN(C2CCC2)CC3)cc1)N1CCCCC1` [Example E18, 3-Cyclobutyl-7-{[4-(1-piperidinylcarbonyl)phenyl]methyl}-2,3,4,5-tetrahydro-1H-3-benzazepine] cannot be ordered by Ki: under 3.16 nM for the first, under 3.16 nM for the second.

`N#Cc1ccc(NC(=O)c2ccc(Cc3ccc4c(c3)CCN(C3CCC3)CC4)cn2)cc1` [Example E56, N-(4-cyanophenyl)-5-[(3-cyclobutyl-2,3,4,5-tetrahydro-1H-3-benzazepin-7-yl)methyl]-2-pyridinecarboxamide] and `CN(C)C(=O)c1cnc(Cc2ccc3c(c2)CCN(C2CCC2)CC3)cn1` [Example E22, 5-[(3-Cyclobutyl-2,3,4,5-tetrahydro-1H-3-benzazepin-7-yl)methyl]-N,N-dimethyl-2-pyrazinecarboxamide] cannot be ordered by Ki: under 3.16 nM for the first, under 3.16 nM for the second.

`O=C1CCCN1c1ccc(Cc2ccc3c(c2)CCN(C2CCC2)CC3)nc1` [Example E5, 1-{6-[(3-cyclobutyl-2,3,4,5-tetrahydro-1H-3-benzazepin-7-yl)methyl]-3-pyridinyl}-2-pyrrolidinone] and `O=C1CCCN1c1cnc(Cc2ccc3c(c2)CCN(C2CCC2)CC3)cn1` [Example E31, 1-{5-[(3-Cyclobutyl-2,3,4,5-tetrahydro-1H-3-benzazepin-7-yl)methyl]-2-pyrazinyl}-2-pyrrolidinone] cannot be ordered by Ki: under 3.16 nM for the first, under 0.316 nM for the second.
